Assay results taken from ChEMBL document CHEMBL1201862, “PubChem BioAssay data set” (2004).
Calls of active or inactive are those of the source.

Key:
[1] = molecular target: Exodeoxyribonuclease V (Escherichia coli (strain K12), UniProt P04993+P07648+P08394); experiment: E. coli RecBCD inhibitors, dose response, counter-screen for AddAB inhibitor project, absorbance, V66 E. coli, mutant T4 phage (AID 492957); type: functional, cell-based, Escherichia coli str. K-12 substr. MG1655
[2] = molecular target: Protein Wnt-3a (Mus musculus, UniProt P27467); experiment: Wnt3a-driven reporter signaling inhibition, dose response, selectivity assay for Gli-SUFU antagonist project, Wnt-LIGHT cells, luminescence (AID 651570); type: functional; conditions: read-out: IC50_Mean;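 further: Wnt-LIGHT reporter cells stimulated with conditioned medium from Wnt3a-producing cells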
Chain of Protein Wnt-3a (P27467 whole entry): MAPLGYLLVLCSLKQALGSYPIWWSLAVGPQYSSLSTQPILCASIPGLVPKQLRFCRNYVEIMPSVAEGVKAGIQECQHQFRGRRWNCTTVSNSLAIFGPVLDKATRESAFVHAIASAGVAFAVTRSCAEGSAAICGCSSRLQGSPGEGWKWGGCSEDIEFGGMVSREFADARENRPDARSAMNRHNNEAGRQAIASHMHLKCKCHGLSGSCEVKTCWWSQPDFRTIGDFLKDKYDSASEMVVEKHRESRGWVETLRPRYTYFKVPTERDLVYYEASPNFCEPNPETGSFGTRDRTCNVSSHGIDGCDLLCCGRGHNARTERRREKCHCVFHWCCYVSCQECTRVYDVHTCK

[3] = tested on: INS1; experiment: beta cell apoptosis inhibitors, cytokine rescue, dose response, luminescence, retest (AID 449756); type: functional, cell-based; conditions: Rattus norvegicus;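 further: cell death triggered by IL-1 beta plus TNF-alpha plus IFN-gamma mixture; protective hits raise ATP signal compared with cytokine alone wells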
[4] = cytotoxicity in HEK-293T cells, dose response, cytotoxicity control for TCR NF-kB inhibitor project, luminescence, T-cell screen hits (AID 489026); type: functional, cell-based;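 further: cells exposed to compound about 14 hours before the viability readout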
[5] = Counterscreen for AddAB inhibitors: absorbance-based bacterial cell-based high throughput dose response assay for inhibitors of bacterial viability. [Related pubchem assays (depositor defined):AID435030, AID449728, AID449731, AID488942, AID488955, AID488956]; type: functional
[6] = molecular target: Multidrug resistance protein CDR2 (Candida albicans (strain SC5314 / ATCC MYA-2876) (Yeast), UniProt P78595); experiment: CaCDR2 efflux pump inhibitors in yeast, dose response, S. cerevisiae AD1-8u, singleplex, Cherry Pick2 set (AID 623994); type: functional; conditions: read-out: EC50_MICROM
[7] = Luminescence Cell-Based Dose Confirmation HTS to Identify Activators of 5'UTR Stem-Loop Driven Alpha-Synuclein mRNA Translation in H4 Neuroglioblastoma Cells. [Related pubchem assays: 1829 (Project Summary), 1814 (Primary HTS)]; type: functional
[8] = tested on: H4; experiment: Luminescence Cell-Based Dose Response HTS to Identify Activators of 5'UTR Stem-Loop Driven Prion Protein mRNA Translation in H4 Neuroglioblastoma Cells. [Related pubchem assays: 1829 (Project Summary), 1814 (Primary HTS)]; type: functional; conditions: Homo sapiens
[9] = Luminescence Cell-Based Dose Response HTS to Identify Activators of Luciferase Translation or Activity in H4 […] Cells. [Related pubchem assays: 1829 (Project Summary), 1814 (Primary HTS)]; type: functional
[10] = molecular target: Mitochondrial peptide methionine sulfoxide reductase (Bos taurus, UniProt P54149); type: functional;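 further: absorbance read-out, biochemical high-throughput dose-response screen for MsrA inhibitors, confirmatory; recombinant bovine MsrA coupled to E. coli TrxB with NADPH and selenocystamine; potency is for inhibitors of MsrA activity on DMSO substrate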
Chain of Mitochondrial peptide methionine sulfoxide reductase (P54149 whole entry): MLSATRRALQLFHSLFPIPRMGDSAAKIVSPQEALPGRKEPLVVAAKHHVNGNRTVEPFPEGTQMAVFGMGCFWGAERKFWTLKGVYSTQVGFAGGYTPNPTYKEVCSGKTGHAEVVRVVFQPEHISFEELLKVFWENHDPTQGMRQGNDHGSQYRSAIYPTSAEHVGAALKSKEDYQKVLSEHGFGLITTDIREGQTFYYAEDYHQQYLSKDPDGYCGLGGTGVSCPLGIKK

[11] = molecular target: T1, Replicative DNA helicase DnaB (Mycobacterium tuberculosis, UniProt P9WMR3); experiment: DnaB intein splicing inhibitors, dose response, biochemical, cell-free fluorescence (AID 449749); type: functional
T1 sequence (P9WMR3 whole entry): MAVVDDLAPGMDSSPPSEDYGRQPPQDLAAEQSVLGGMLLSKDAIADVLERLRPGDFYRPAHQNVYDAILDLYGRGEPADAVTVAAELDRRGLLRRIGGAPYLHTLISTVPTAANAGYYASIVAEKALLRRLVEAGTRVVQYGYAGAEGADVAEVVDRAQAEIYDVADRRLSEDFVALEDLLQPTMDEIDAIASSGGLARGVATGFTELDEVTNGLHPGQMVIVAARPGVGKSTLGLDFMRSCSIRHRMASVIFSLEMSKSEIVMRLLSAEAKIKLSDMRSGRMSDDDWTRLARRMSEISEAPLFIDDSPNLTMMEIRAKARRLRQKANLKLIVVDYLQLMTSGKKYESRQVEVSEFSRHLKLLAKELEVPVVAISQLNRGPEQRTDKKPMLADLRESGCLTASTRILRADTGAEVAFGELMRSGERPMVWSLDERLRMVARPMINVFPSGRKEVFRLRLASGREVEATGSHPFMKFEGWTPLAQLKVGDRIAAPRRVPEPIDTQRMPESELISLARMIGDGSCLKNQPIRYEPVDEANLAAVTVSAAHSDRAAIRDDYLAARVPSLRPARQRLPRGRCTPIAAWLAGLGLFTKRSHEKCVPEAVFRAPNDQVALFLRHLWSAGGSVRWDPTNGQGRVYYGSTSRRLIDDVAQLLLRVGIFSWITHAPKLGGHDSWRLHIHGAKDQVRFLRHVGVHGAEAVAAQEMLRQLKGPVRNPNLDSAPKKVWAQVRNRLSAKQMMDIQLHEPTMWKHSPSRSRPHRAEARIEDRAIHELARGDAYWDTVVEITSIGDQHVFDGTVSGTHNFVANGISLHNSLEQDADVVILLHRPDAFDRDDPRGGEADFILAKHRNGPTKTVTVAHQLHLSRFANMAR

[12] = molecular target: T2, Protein RecA (Mycobacterium tuberculosis, UniProt P9WHJ3); experiment: Fluorescence Cell-Free Homogeneous Dose Retest to Identify Inhibitors of RecA-Intein Splicing Activity. [Related pubchem assays (depositor defined):AID2097, AID2223, AID489010, AID492950]; type: functional
T2 sequence (P9WHJ3 whole entry): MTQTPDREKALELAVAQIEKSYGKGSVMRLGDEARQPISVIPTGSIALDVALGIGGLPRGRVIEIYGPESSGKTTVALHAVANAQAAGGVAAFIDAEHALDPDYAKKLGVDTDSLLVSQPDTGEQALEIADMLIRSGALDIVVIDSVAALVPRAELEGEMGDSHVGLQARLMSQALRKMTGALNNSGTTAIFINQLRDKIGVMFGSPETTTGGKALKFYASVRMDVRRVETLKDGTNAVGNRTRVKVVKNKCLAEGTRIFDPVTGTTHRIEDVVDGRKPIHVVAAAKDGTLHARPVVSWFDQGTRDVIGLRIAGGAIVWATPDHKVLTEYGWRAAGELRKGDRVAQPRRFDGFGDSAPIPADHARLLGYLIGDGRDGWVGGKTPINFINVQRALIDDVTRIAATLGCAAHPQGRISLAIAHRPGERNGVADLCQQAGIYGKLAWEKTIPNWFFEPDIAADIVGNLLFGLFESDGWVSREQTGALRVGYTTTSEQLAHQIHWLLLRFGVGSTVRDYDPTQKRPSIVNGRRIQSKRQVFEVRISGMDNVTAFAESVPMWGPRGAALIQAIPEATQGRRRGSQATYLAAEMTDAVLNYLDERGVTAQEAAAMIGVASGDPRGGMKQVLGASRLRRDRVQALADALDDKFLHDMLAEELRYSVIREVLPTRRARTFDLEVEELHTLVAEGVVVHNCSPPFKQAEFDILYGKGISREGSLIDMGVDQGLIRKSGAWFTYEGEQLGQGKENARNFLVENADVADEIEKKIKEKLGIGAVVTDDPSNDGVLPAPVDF

[13] = nonselective inhibitors of cellular cAMP signaling, dose response, counter-screen for MC4R biased antagonist project, cell-based, TR-FRET cAMP detection (AID 602305); type: functional;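 further: U2OS cells stimulated with forskolin near its EC80 as the cAMP inducer; potency is for inhibition of forskolin-stimulated cAMP signaling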
[14] = molecular target: Melanocortin receptor 4 (Homo sapiens, UniProt P32245); experiment: MC4R antagonist potency on cAMP, dose response, cell-based, TR-FRET, biased antagonists (AID 602298); type: functional;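 further: antagonist potency against agonist-stimulated cAMP production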
Chain of Melanocortin receptor 4 (P32245 whole entry): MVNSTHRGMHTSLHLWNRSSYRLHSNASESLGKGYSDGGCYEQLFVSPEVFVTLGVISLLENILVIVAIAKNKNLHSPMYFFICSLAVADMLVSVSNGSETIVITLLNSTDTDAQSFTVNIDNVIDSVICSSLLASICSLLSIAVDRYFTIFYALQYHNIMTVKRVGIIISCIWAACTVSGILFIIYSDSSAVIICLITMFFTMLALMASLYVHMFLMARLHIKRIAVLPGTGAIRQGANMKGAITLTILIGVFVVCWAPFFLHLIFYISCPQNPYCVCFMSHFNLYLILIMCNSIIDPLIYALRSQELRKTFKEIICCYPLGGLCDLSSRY

[15] = molecular target: T3, Apoptotic protease-activating factor 1 (Homo sapiens, UniProt O14727); experiment: SAR analysis of small molecule Activators of Apaf-1 in a Fluorescent assay.; type: functional; conditions: read-out: EC50_Mean;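 further: caspase-3 cleavage of fluorogenic Rh110 DEVD substrate downstream of apoptosome activation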
T3 sequence (O14727 whole entry): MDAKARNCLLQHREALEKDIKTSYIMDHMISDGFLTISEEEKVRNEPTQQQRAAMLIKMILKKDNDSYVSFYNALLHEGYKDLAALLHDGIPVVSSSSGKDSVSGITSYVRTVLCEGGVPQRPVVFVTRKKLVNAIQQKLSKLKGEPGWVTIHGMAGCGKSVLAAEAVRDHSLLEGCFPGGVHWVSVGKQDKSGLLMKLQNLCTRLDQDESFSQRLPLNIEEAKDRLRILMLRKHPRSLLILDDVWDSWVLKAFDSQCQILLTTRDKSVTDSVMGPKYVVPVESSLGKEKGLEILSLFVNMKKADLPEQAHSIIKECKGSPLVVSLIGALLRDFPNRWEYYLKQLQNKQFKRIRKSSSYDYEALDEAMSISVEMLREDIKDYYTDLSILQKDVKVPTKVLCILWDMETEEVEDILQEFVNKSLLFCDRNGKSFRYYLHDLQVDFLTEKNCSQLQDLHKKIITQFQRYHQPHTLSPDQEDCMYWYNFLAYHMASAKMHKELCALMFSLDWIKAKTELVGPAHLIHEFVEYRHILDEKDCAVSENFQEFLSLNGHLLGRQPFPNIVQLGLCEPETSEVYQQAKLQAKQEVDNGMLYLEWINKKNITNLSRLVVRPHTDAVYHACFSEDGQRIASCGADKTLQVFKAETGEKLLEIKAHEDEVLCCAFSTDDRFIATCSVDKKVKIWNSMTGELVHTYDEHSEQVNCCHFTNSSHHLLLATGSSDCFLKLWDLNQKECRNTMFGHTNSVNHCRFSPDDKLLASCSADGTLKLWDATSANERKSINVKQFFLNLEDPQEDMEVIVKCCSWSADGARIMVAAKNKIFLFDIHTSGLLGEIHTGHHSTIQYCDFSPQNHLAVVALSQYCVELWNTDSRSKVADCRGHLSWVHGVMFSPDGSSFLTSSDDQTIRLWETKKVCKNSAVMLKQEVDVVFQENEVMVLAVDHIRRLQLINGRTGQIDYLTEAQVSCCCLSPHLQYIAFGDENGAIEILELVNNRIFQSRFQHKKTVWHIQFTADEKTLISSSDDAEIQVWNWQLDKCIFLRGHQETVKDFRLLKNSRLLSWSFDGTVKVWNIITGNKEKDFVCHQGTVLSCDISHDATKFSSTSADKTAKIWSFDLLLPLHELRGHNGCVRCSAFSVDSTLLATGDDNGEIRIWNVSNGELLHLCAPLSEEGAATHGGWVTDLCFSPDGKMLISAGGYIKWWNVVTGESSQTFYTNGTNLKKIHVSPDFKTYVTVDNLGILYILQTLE

[16] = molecular target: Hepatocyte nuclear factor 4-alpha (Homo sapiens, UniProt P41235); type: functional, cell-based;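 further: biochemical luminescence-based dose-response counterscreen measuring inhibition of HNF4 dimerization, run alongside a screen for blockers of ABHD5–perilipin-5 interaction; split luciferase complementation of HNF4 fusion proteins in cell lysate measuring dimerization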
Chain of Hepatocyte nuclear factor 4-alpha (P41235 whole entry, the tested form may be a part): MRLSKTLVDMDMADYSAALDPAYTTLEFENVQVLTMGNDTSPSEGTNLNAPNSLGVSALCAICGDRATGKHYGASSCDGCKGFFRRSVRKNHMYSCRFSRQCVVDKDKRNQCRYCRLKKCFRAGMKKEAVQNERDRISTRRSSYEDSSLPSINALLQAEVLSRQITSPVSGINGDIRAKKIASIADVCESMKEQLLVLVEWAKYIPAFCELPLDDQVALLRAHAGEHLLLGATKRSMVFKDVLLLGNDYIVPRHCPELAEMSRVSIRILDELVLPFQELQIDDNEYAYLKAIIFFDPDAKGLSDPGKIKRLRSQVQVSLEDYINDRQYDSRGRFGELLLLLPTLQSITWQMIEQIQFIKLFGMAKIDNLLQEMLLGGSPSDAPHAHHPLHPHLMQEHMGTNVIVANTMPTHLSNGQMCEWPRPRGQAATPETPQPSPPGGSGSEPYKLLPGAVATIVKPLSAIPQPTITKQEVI

[17] = Luminescence Cell-Based Dose Retest to Confirm Inhibitors of Cancer Stem Cells. [Related pubchem assays (depositor defined):AID2717, AID2721]; type: functional; conditions: Homo sapiens
[18] = tested on: Vero; experiment: cells; type: functional; conditions: Chlorocebus sabaeus
[19] = molecular target: Bcl-2-like protein 1 (Homo sapiens, UniProt Q07817); experiment: BCL-XL inhibitors, dose response, selectivity assay for MCL1 inhibitor project, biochemical, fluorescence polarization, 1536-well (AID 2218)
Chain of Bcl-2-like protein 1 (Q07817 whole entry): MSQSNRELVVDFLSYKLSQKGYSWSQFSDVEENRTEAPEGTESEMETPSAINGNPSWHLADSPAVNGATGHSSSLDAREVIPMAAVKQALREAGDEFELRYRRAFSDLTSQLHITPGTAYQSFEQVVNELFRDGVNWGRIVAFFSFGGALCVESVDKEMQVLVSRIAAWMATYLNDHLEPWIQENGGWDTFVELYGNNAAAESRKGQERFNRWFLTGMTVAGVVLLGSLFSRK

[20] = molecular target: T4, Small ubiquitin-related modifier 1 (Homo sapiens, UniProt P63165); experiment: inhibitors of SUMO1 peptide binding, dose response, biochemical, fluorescence polarization, uHTS hits (AID 624382); type: functional; conditions: read-out: IC50_Mean
T4 sequence (P63165 whole entry): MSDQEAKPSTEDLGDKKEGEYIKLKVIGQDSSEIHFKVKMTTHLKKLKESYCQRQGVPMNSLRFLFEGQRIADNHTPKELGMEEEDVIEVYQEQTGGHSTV

[21] = molecular target: T4, Small ubiquitin-related modifier 1; experiment: inhibitors of SUMO1 partner interactions, dose response, biochemical, FRET (AID 624383); type: functional; conditions: read-out: IC50_Mean
[22] = molecular target: DNA (cytosine-5)-methyltransferase 1 (Homo sapiens, UniProt P26358); experiment: DNMT1 methyltransferase inhibitors, confirmation, biochemical, fluorescent molecular beacon (AID 602386); type: functional
Chain of DNA (cytosine-5)-methyltransferase 1 (P26358 whole entry): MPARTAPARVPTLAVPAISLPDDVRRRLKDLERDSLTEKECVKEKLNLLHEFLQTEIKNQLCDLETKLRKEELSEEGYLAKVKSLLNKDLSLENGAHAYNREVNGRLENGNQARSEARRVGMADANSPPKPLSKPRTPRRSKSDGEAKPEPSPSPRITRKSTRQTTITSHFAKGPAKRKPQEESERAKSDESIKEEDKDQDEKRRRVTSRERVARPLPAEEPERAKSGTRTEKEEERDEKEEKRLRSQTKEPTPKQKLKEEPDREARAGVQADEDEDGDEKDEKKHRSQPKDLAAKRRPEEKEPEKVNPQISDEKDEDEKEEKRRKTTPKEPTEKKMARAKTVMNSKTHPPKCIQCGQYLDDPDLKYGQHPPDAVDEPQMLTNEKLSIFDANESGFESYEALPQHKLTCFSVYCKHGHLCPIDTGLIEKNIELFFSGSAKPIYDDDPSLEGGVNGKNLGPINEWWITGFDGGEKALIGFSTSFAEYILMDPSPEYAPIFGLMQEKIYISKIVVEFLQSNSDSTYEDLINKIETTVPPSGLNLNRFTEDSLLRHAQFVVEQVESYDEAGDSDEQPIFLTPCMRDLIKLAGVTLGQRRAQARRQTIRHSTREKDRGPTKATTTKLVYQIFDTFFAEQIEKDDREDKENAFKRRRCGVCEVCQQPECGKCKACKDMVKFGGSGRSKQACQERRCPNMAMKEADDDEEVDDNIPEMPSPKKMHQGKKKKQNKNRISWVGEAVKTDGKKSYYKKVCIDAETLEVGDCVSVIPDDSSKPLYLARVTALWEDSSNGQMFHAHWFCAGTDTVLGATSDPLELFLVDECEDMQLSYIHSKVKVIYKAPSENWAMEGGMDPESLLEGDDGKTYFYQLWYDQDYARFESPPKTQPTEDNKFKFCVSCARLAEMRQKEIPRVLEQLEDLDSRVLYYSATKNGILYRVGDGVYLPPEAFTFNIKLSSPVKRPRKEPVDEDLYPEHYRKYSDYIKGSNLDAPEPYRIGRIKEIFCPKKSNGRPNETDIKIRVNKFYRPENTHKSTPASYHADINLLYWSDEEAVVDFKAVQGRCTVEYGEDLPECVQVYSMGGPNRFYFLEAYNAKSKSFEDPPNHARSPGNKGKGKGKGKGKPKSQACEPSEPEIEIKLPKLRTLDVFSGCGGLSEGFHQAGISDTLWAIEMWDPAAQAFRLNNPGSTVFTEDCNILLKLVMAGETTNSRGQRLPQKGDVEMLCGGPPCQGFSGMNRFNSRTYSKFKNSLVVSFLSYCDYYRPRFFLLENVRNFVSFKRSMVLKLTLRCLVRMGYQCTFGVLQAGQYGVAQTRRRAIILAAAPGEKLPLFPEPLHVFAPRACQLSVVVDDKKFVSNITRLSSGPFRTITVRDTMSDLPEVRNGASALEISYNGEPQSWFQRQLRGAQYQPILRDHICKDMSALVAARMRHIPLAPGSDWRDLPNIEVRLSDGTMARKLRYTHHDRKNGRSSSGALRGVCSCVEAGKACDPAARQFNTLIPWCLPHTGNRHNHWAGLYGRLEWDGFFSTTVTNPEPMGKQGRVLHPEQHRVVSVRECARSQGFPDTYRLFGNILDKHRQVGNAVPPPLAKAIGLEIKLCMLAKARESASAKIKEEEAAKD

[23] = molecular target: Induced myeloid leukemia cell differentiation protein Mcl-1 (Homo sapiens, UniProt Q07820); experiment: MCL1-BIM BH3 interaction inhibitors, dose response, biochemical, fluorescence polarization, BIM-BH3 peptide, 1536-well (AID 2217)
Chain of Induced myeloid leukemia cell differentiation protein Mcl-1 (Q07820 whole entry): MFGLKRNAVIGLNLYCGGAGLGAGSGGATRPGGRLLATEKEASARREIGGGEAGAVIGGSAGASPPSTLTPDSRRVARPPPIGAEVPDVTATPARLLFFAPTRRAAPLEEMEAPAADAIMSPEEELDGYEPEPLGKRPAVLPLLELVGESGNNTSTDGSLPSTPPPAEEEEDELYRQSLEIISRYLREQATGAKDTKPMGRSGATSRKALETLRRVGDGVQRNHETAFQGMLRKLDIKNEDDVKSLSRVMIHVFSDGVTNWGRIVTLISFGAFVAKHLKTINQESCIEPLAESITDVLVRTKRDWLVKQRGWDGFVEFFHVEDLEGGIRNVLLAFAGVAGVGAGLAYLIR

[24] = molecular target: DNA dC->dU-editing enzyme APOBEC-3A (Homo sapiens, UniProt P31941); experiment: SAR analysis of small molecule inhibitors of APOBEC3A DNA Deaminase via a fluorescence-based single-stranded DNA deaminase assay.; type: functional; conditions: read-out: IC50_Mean
Chain of DNA dC->dU-editing enzyme APOBEC-3A (P31941 whole entry): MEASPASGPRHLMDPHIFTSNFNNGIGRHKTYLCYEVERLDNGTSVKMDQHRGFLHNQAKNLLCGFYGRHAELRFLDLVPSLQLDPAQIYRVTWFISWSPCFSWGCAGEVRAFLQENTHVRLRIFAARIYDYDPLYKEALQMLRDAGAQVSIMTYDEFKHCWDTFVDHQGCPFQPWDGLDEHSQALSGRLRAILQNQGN

[25] = molecular target: DNA dC->dU-editing enzyme APOBEC-3G (Homo sapiens, UniProt Q9HC16); experiment: APOBEC3G deaminase inhibitors, SAR follow-up, biochemical, fluorescence, single-stranded DNA substrate (AID 602136); type: functional; conditions: read-out: IC50_Mean
Chain of DNA dC->dU-editing enzyme APOBEC-3G (Q9HC16 whole entry): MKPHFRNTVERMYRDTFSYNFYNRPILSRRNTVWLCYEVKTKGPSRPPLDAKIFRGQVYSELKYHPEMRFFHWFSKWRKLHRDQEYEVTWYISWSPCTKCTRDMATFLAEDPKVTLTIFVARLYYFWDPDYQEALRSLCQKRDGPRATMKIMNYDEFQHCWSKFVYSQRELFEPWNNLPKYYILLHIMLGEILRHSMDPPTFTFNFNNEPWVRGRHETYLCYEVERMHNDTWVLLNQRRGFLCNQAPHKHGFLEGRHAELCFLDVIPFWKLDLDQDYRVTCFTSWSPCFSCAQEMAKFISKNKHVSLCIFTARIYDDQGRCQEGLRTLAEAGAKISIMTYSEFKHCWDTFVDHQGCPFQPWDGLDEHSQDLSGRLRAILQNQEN

[26] = molecular target: Beta-lactamase (Salmonella choleraesuis (strain SC-B67), UniProt Q5J463)
[27] = molecular target: Beta Lactamase (Pseudomonas aeruginosa, UniProt Q932Y6);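 further: confirmatory high-throughput screen measuring VIM-2 metallo-beta-lactamase inhibition by epi-absorbance in dose response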
Chain of Beta Lactamase (Q932Y6 whole entry): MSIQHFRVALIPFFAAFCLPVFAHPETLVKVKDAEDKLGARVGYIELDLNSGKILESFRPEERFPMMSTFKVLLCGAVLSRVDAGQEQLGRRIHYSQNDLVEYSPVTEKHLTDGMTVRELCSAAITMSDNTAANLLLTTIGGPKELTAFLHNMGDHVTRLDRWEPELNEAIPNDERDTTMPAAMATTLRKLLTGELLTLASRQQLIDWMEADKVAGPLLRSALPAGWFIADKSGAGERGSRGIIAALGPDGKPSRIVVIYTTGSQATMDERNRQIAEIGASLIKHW

[28] = molecular target: Beta-lactamase (Pseudomonas aeruginosa, UniProt Q79MP6);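 further: biochemical dose-response test of metallo-beta-lactamase enzyme inhibition, read out by epi-absorbance; purified recombinant IMP-1 metallo-beta-lactamase with nitrocefin as substrate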
Chain of Beta-lactamase (Pseudomonas aeruginosa, UniProt Q79MP6) (Q79MP6 whole entry): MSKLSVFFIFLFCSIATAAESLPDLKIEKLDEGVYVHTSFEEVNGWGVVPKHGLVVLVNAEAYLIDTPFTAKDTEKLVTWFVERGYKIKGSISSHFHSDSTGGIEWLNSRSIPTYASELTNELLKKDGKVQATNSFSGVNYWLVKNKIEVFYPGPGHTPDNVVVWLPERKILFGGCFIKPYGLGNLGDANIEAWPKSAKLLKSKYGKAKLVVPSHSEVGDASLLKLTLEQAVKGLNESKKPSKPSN

Compound: CCOC(=O)c1ccc(NC(=O)Cn2cnc3cc(C)c(C)cc32)cc1
- IC50 [1]: > 119 µM (inactive)
- IC50 [2]: 0.931 µM (active)
- AC50 [3]: 4.42 µM (active)
- IC50 [4]: > 80 µM (inactive)
- IC50 [5]: > 119 µM (inactive)

Compound: O=C(Nc1ccccc1)C1=C[C@H](c2ccccc2)C[C@H](OCCCCO)O1
- EC50 [6]: 27.7 µM (active)
- EC50 [7]: 11.6 µM (active)
- EC50 [8]: 22 µM (active)
- EC50 [9]: 9.7 µM (active)

Compound: CS/C(=C/[N+](=O)[O-])Nc1cccc2c1C(C)CC2(C)C (stereo not drawn)
- IC50 [10]: 44.8 µM (inactive)
- AC50 [11]: 17.5 µM (active)
- EC50 [12]: 5.21 µM (active)

Compound: CN(c1ccc(OCC(=O)OCC(=O)Nc2ccc(Br)cc2)cc1)S(=O)(=O)c1cccs1
- IC50 [13]: > 64.6 µM (inactive)
- IC50 [14]: > 64.6 µM (inactive)

Compound: Cc1nn(Cc2ccccc2)c(C)c1CCC(=O)O
- EC50 [15]: > 100 µM (inactive)

Compound: Cc1ccc(/C=C/C(=O)c2cc(Br)ccc2OC(=O)c2ccco2)cc1
- IC50 [16]: 1.96 µM (active)
- AC50 [17]: 4.76 µM (active)
- CC50 [18]: 24.4 µM (active)

Compound: CCOc1ccc(NC(=O)c2cccc(-n3cccc3)c2)cc1S(=O)(=O)N1CCOCC1
- IC50 [19]: > 109 µM (not active)
- IC50 [20]: > 66.6 µM (inactive)
- IC50 [21]: 3.29 µM (active)
- IC50 [22]: 9.08 µM (active)
- IC50 [23]: > 4.03 µM (active)

Compound: CS(=O)(=O)N1CCC(C(=O)Nc2cc(C(F)(F)F)ccc2N2CCOCC2)CC1
- IC50 [24]: > 99 µM (inactive)
- IC50 [25]: > 99 µM (inactive)

Compound: C/C(=N\O)c1ccc2c3c([nH]c2c1)CCCC3
- IC50 [26]: > 59.6 µM (inactive)
- IC50 [27]: > 59.6 µM (inactive)
- IC50 [28]: > 59.6 µM (inactive)
